Results taken from ChEMBL document CHEMBL1201862, “PubChem BioAssay data set” (2004).
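All cell lines were grown in 96-well plates and treated with compound for 48 hours. GI50 marks 50% less growth.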 Active and inactive are the calls of the source. Cut-off read from the data, not from the text of the source: active = GI50 up to about 1.1 µM and inactive = higher.

Assays:
Test in all cases: NCI anticancer screen, dose series, 48 h
UACC-257 = system: UACC-257
HL-60 = system: HL-60
OVCAR-5 = system: OVCAR-5
786-0 = system: 786-0
HCT-15 = system: HCT-15
KM12 = system: KM12
NCI-H23 = system: NCI-H23
HCC 2998 = system: HCC 2998
A549 = system: A549
IGROV-1 = system: IGROV-1
SN12C = system: SN12C
SNB-75 = system: SNB-75
SF-295 = system: SF-295
OVCAR-3 = system: OVCAR-3
TK-10 = system: TK-10
NCI-H226 = system: NCI-H226

SMILES | GI50 (UACC-257) | GI50 (HL-60) | GI50 (OVCAR-5) | GI50 (786-0) | GI50 (HCT-15) [µM] | GI50 (KM12) | GI50 (NCI-H23) | GI50 (HCC 2998) | GI50 (A549) | GI50 (IGROV-1) | GI50 (SN12C) | GI50 (SNB-75) | GI50 (SF-295) | GI50 (OVCAR-3) | GI50 (TK-10) | GI50 (NCI-H226)
CC1=CC(O)(c2ccc(-c3ccccc3Cl)cc2)OC1=O (stereo not drawn) | > 100 µM (inactive) | > 100 µM (inactive) | > 100 µM (inactive) | > 100 µM (inactive) | > 100 | > 100 µM (inactive) | > 100 µM (inactive) | > 100 µM (inactive) | > 100 µM (inactive) | > 100 µM (inactive) | > 100 µM (inactive) | 43.1 µM (inactive) | > 100 µM (inactive) | > 100 µM (inactive) | > 100 µM (inactive) | 
CC(=O)c1ccc(NC(=O)C(=O)C(C(=O)/C=C/c2ccccc2)C2OC(=O)c3ccccc32)cc1 (stereo not drawn) | > 100 µM (inactive) | > 100 µM (inactive) | > 100 µM (inactive) | > 100 µM (inactive) | > 100 | > 100 µM (inactive) | > 100 µM (inactive) | > 100 µM (inactive) | > 100 µM (inactive) | > 100 µM (inactive) | > 100 µM (inactive) | > 100 µM (inactive) | > 100 µM (inactive) |  | > 100 µM (inactive) | > 100 µM (inactive)
CCC(=O)c1c(NOC2OC(COC(C)=O)C(OC(C)=O)C(OC(C)=O)C2OC(C)=O)nc(OC)n(C)c1=O (stereo not drawn) |  |  | > 100 µM (inactive) | > 100 µM (inactive) | > 100 | > 100 µM (inactive) | > 100 µM (inactive) | > 100 µM (inactive) | > 100 µM (inactive) | > 100 µM (inactive) | > 100 µM (inactive) | > 100 µM (inactive) | > 100 µM (inactive) |  | > 100 µM (inactive) | 50.1 µM (inactive)
CC(=O)Nc1ccc(-c2nnc(SCC(=O)Nc3ccccc3C)o2)cc1 | > 100 µM (inactive) | 57.9 µM (inactive) | > 100 µM (inactive) | > 100 µM (inactive) | 80.2 | 44.7 µM (inactive) | > 100 µM (inactive) |  | > 100 µM (inactive) | 67 µM (inactive) | > 100 µM (inactive) | > 100 µM (inactive) | 89.7 µM (inactive) | 74.5 µM (inactive) | > 100 µM (inactive) | > 100 µM (inactive)
CC(C)(C)OC(=O)c1cccnc1/C=N/O | > 100 µM (inactive) | > 100 µM (inactive) | > 100 µM (inactive) | 67.6 µM (inactive) | 51.9 | > 100 µM (inactive) | > 100 µM (inactive) |  | > 100 µM (inactive) | > 100 µM (inactive) | > 100 µM (inactive) | > 100 µM (inactive) | 78.7 µM (inactive) | 53.1 µM (inactive) | > 100 µM (inactive) | > 100 µM (inactive)
N#C/C(=C/c1cccc2ccccc12)C(=O)c1ccccc1 | > 10 µM (inactive) | 19.4 µM (inactive) | 23.6 µM (inactive) | 16.3 µM (inactive) | 19 | 20.9 µM (inactive) | 17.8 µM (inactive) | 23.6 µM (inactive) | > 10 µM (inactive) | 24.3 µM (inactive) | 33.2 µM (inactive) |  | 20 µM (inactive) | 48.6 µM (inactive) | 35.4 µM (inactive) | 17.7 µM (inactive)
CC(=O)CC(=O)CCC(=O)Nc1cccc(C(F)(F)F)c1 | > 100 µM (inactive) | > 100 µM (inactive) | > 100 µM (inactive) | > 100 µM (inactive) | > 100 | > 100 µM (inactive) | > 100 µM (inactive) | > 100 µM (inactive) | > 100 µM (inactive) | > 100 µM (inactive) | > 100 µM (inactive) |  | > 100 µM (inactive) | > 100 µM (inactive) | > 100 µM (inactive) | > 100 µM (inactive)
